Columns and labels:
[1] = Liver Microsome Stability Assay, human; format: in vitro ADME; settings: human liver microsomes 1.0 mg/mL, 1.0 uM compound, 37° C., 1 mM NADPH
How it was run: (§1)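 Stability was judged from samples quenched at 0 and 30 minutes after incubating 1.0 uM compound with 1.0 mg/mL liver microsomes at 37° C, plus or minus 1 mM NADPH, in 0.1 M potassium phosphate containing 0.4% DMSO.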

[2] = test system: IL6R-ss+10aa/Gaussia Luciferase; test: Dox-induced IL-6R-ss-Gluc Assay; format: cell-based; settings: Table 1; for IC50: Flp-In 293 T-REx cells, 24 hours with doxycycline, read-out: 24hr Dox Inducible IL6R(ss + 10)Gluc 293FRT/TO: Mean IC50; for 24hr Dox Inducible IL6R(ss + 10)Gluc 293FRT/TO: IL6R/PD1: ratio of IC50s IL6R/PD1
How it was run: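 Flp-In 293 T-REx cells stably carrying a doxycycline-inducible IL6R signal sequence+10 aa fused to Gaussia luciferase. Cells plated the day before; compound dilutions added in DMSO/media containing doxycycline and incubated at 37 °C, 5% CO2.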

CD47(ss + 10)Gluc = test: Dox-Induced CD47-ss-Gluc Assay; format: cell-based; settings: Flp-In 293 T-REx cells, 24 hours with doxycycline; Table 1; read-out: 24 hr Dox Inducible CD47(ss + 10)Gluc 293FRT/TO: Mean IC50
[3] = Liver Microsome Stability Assay, monkey; format: in vitro ADME; settings: monkey liver microsomes 1.0 mg/mL, 1.0 uM compound, 37° C., 1 mM NADPH
How it was run: as §1

[4] = test system: multiple myeloma cell line NCI-H929; test: H929 Cell Viability Assay; format: cell-based, human; settings: Homo sapiens; NCI-H929 cells, 48 hours, Celltiter-Glo; read-out: 48 hr H929 Viability Celltiter-Glo: Mean EC50
How it was run: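 Cells in RPMI 1640/10% FBS; compound dilutions in DMSO/media; 48 h, 37° C, 5% CO2; CellTiter-Glo luciferase readout for viability.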

[5] = Liver Microsome Stability Assay, mouse; format: in vitro ADME; settings: mouse liver microsomes 1.0 mg/mL, 1.0 uM compound, 37° C., 1 mM NADPH
How it was run: as §1

[6] = test system: IL-2-FL/Gaussia Luciferase; test: Dox Inducible IL2-FL-Gluc Assay; format: cell-based; settings: Table 1; for IC50: Flp-In 293 T-REx cells, 24 hours with doxycycline, read-out: 24 hr Dox Inducible IL2FLGluc 293FRT/TO: Mean IC50; for 24 hr Dox Inducible IL2FLGluc 293FRT/TO: IL2/PD1: ratio of IC50s IL2/PD1
How it was run: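 Stable Flp-In 293 T-REx line, Tet-regulated IL-2 (aa 1-153)–Gaussia luciferase fusion; hygromycin/blasticidin selected. Plated day -1; compound + doxycycline added next day; 37° C, 5% CO2.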

[7] = test system: PD1-ss+10aa/Gaussia Luciferase; test: Dox-Induced PD1-ss-Gluc Assay; format: cell-based; settings: Flp-In 293 T-REx cells, 24 hours with doxycycline; Table 1; read-out: 24 hr Dox Inducible PD1ssGluc 293FRT/TO: Mean IC50
How it was run: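 Flp-In 293 T-REx cells stably carrying a doxycycline-inducible Gaussia luciferase fused to the PD1 signal sequence plus 10 aa were plated the day before. Compound dilutions in DMSO/media containing doxycycline were then added and incubated at 37 °C, 5% CO2. Data for undefined stereochemistry refer to stereoisomer mixtures.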

[8] = Liver Microsome Stability Assay, rat; format: in vitro ADME; settings: rat liver microsomes 1.0 mg/mL, 1.0 uM compound, 37° C., 1 mM NADPH
How it was run: as §1

[9] = test system: multiple myeloma cell line U266B1; test: U266 Cell Viability Assay; format: cell-based; settings: Homo sapiens, U-266; U266B1 cells, 48 hours, Celltiter-Glo; read-out: 48 hr U266 Viability Celltiter-Glo: Mean EC50
How it was run: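 Luminescent ATP read-out (CellTiter-Glo) after 48 h compound exposure at 37° C., 5% CO2; cells maintained in RPMI 1640/10% FBS/2 mM glutamine/pen-strep, compounds diluted in DMSO/media.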

SMILES | Liver Microsome Stability (Multiple Species): Human - % Remaining after 30 min w/ NADPH (%) [1] [%] | IC50 [2] [µM] | IC50 (CD47(ss + 10)Gluc) [µM] | Liver Microsome Stability (Multiple Species): Monkey - % Remaining after 30 min w/ NADPH (%) [3] [%] | EC50 [4] [µM] | Liver Microsome Stability (Multiple Species): Mouse - % Remaining after 30 min w/ NADPH (%) [5] [%] | IC50 [6] [µM] | IC50 [7] [µM] | Liver Microsome Stability (Multiple Species): Rat - % Remaining after 30 min w/ NADPH (%) [8] [%] | EC50 [9] [µM] | 24hr Dox Inducible IL6R(ss + 10)Gluc 293FRT/TO: IL6R/PD1 [2] | 24 hr Dox Inducible IL2FLGluc 293FRT/TO: IL2/PD1 [6]
N#Cc1ocnc1/C=C/c1csc(NC(=O)c2cccn2Cc2ccnc(F)c2)n1 [Compound B19, (E)-N-(4-(2-(5-cyanooxazol-4-yl)vinyl)thiazol-2-yl)-1-((2-fluoropyridin-4-yl)methyl)-1H-pyrrole-2-carboxamide] | 7 | > 25 | > 25 | 6 | > 25 | 22 | > 25 | 0.318 | 1 | > 25 | >79 | >79
O=C(Nc1nc(/C=C/C2CCOC2)cs1)c1cccn1Cc1ccnc(F)c1 (stereo not shown) [Compound B22, (E)-1-((2-fluoropyridin-4-yl)methyl)-N-(4-(2-(tetrahydrofuran-3-yl)vinyl)thiazol-2-yl)-1H-pyrrole-2-carboxamide] | 9 | > 25 | > 25 | <1 | > 25 | 41 | > 25 | > 25 | 1 | > 25 |  | 

The next lines start with results.

Liver Microsome Stability (Multiple Species): Human - % Remaining after 30 min w/ NADPH (%) [1] [%] | IC50 [2] [µM] | IC50 (CD47(ss + 10)Gluc) [µM] | Liver Microsome Stability (Multiple Species): Monkey - % Remaining after 30 min w/ NADPH (%) [3] [%] | EC50 [4] [µM] | Liver Microsome Stability (Multiple Species): Mouse - % Remaining after 30 min w/ NADPH (%) [5] [%] | IC50 [6] [µM] | IC50 [7] [µM] | Liver Microsome Stability (Multiple Species): Rat - % Remaining after 30 min w/ NADPH (%) [8] [%] | EC50 [9] [µM] | SMILES | 24hr Dox Inducible IL6R(ss + 10)Gluc 293FRT/TO: IL6R/PD1 [2] | 24 hr Dox Inducible IL2FLGluc 293FRT/TO: IL2/PD1 [6]
<1 | 9.91 | > 25 | <1 | > 25 | 45 | > 25 | 11.3 | 6 | > 25 | N[C@H]1CC[C@H](/C=C/c2csc(NC(=O)c3cccn3Cc3ccncc3)n2)CC1 [Compound B18, N-(4-((E)-2-((1r,4r)-4-aminocyclohexyl)vinyl)thiazol-2-yl)-1-(pyridin-4-ylmethyl)-1H-pyrrole-2-carboxamide] | 1 | >2.2
<1 | 1.32 | 1.52 | <1 | 8.36 | 5 | 1.53 | 0.009 | 33 | 15.7 | CC(C)n1cnc(/C=C/c2csc(NC(=O)c3cccn3Cc3ccnc(F)c3)n2)c1C#N [Compound B20, (E)-N-(4-(2-(5-cyano-1-isopropyl-1H-imidazol-4-yl)vinyl)thiazol-2-yl)-1-((2-fluoropyridin-4-yl)methyl)-1H-pyrrole-2-carboxamide] | 146 | 170.0
<1 | > 25 | > 25 | <1 | 17.5 | 11 | > 25 | 0.065 | 20 | 24.2 | [2H]c1nc(/C=C/c2csc(NC(=O)c3cccn3Cc3ccnc(F)c3)n2)cn1C(C)C [Compound B21] | >385 | >380

— patent US20250171434A1, “SEC61 INHIBITORS AND USE THEREOF” (KEZAR LIFE SCIENCES, INC., priority 2022, published 2025)
